Measurements reported in patent US8674172B2, “Prostate cancer cell lines and their use in screening method” (Institut Gustave Roussy, priority 2009, dated 2014).
“Also recorded” adds a separate entry of the source.

What was measured:
Format in all cases: cell-based, human
[1] = system: IGR-CaP1 cells; assay: Hormone-dependent growth assay (WST1 cell survival); conditions: 10^-9M DHT for 72 hours, phenol red free medium with charcoal-stripped serum
Description: (§1) The cell growth kinetic was determined by counting the viable cell number at regular intervals. Cells were seeded in triplicate at 4000 cells/well in 12 well plates in normal culture medium or in medium containing 10% of charcoal-stripped serum. Each day, cells were colored with trypan blue and counted. The doubling-time was calculated from regression equation of the curve. For the hormone-dependent growth assay, cells were seeded at 10 000 cells/well in 96 well plates. After 24 h, the culture medium was replaced with medium without phenol red containing 10% of charcoal-stripped serum and the DHT was added or not at the final concentration of 10^−9M. The medium was replaced each day. After 72 hours, cell survival was measured with the WST1 test according the manufacturer's procedures.

[2] = system: LNCaP cells; assay: as above; conditions: 10^-9M DHT for 72 hours, phenol red free medium with charcoal-stripped serum
Description: as §1

[3] = system: PC3 cells; assay: as above; conditions: 10^-9M DHT for 72 hours, phenol red free medium with charcoal-stripped serum
Description: as §1

[4] = system: IGR-CaP1-R100 cell line; assay: Resistance of the cell line to a cytotoxic drug
[5] = system: IGR-CaP1 cells; assay: Cell cycle analysis by flow cytometry after propidium iodide staining; conditions: sensitive IGR-CaP1 cells, 100 nM docetaxel for 48 h
Description: (§2) Freshly plated IGR-CaP1 and IGR-CaP1-R100 cells were incubated for 48 h in complete medium containing or not 100 nM of docetaxel. Cell cycle distribution was studied on 70% cold ethanol-fixed cells, by propidium iodide staining (50 μg in PBS) and RNAse treatment (20 μg) followed by flow cytometry analysis (FACScalibur Becton-Dickinson).

[6] = system: IGR-CaP1-R100 cells; assay: as above; conditions: IGR-CaP1-R100 cells resistant to 100 nM docetaxel, 100 nM docetaxel for 48 h
Description: as §2

C[C@]12CCC(=O)C[C@@H]1CC[C@@H]1[C@@H]2CC[C@]2(C)[C@@H](O)CC[C@@H]12 [DHT]
Cellular growth in the presence of androgen [1]: did not affect the cellular growth
Cellular growth in the presence of androgen [2]: increased
Cellular growth in the presence of androgen [3]: did not affect the cellular growth

N.N.[Cl][Pt][Cl] [cisplatin]
Resistance of the cell line to the drug [4]: resistant

CC(=O)O[C@@]12CO[C@@H]1C[C@H](O)[C@@]1(C)C(=O)[C@H](O)C3=C(C)[C@@H](OC(=O)[C@H](O)[C@@H](NC(=O)OC(C)(C)C)c4ccccc4)C[C@@](O)([C@@H](OC(=O)c4ccccc4)[C@H]21)C3(C)C [docetaxel]
Cell cycle distribution (block in G2-M phase) [5]: blocked in G2-M phase
Cell cycle distribution (block in G2-M phase) [6]: normally cycle; also recorded: not blocked in G2-M phase
